pKi: −log10 of the molar value.
Each compound was assayed against A2A adenosine receptors (Homo sapiens, UniProt P29274) (assay: A2A Ki binding (methodology of Murphree et al., Mol Pharmacol 2002, 61, 455-62)).
Source text: The Ki values were obtained using the methodology described by Murphree et al. in Mol Pharmacol 2002, 61, 455-62.

A2A adenosine receptors, sequence (P29274 whole entry): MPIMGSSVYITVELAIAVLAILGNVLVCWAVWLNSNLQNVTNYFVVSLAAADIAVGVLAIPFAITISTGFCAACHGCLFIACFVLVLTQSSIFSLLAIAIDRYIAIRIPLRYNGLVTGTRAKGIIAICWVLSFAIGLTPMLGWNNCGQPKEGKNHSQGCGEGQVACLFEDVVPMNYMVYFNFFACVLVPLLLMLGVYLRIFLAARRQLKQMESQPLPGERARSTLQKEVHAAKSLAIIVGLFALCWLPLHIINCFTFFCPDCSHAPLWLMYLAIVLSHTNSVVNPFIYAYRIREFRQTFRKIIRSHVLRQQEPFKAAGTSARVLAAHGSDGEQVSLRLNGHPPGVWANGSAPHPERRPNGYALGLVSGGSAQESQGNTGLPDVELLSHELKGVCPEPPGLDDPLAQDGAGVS

SMILES	pKi
CNC(=O)[C@H]1O[C@@H](n2cnc3c(N)nc(C#CCN(CC(C)C)C(=O)c4ccccc4)nc32)C(O)[C@@H]1O (stereo partly drawn) [Example 32]	> 9.00
CNC(=O)[C@H]1O[C@@H](n2cnc3c(N)nc(C#CCN(C)C(=O)c4ccc(F)nc4)nc32)C(O)[C@@H]1O (stereo partly drawn) [Example 6, N-Methyl 2-{3-[N-methyl-1-(6-fluoropyridin-3-yl)formamido]prop-1-yn-1-yl}adenosine-5′-uronamide]	> 9.00
CNC(=O)[C@H]1O[C@@H](n2cnc3c(N)nc(C#CCN(C)C(=O)c4cccnc4)nc32)C(O)[C@@H]1O (stereo partly drawn) [Example 9, N-Methyl 2-{3-[N-methylnicotinamido]propyn-1-yl}adenosine-5′-uronamide]	7.30 to 9.00
CCNC(=O)[C@H]1O[C@@H](n2cnc3c(N)nc(C#CCN(Cc4ccc(OC)cc4)C(=O)C4CC4)nc32)C(O)[C@@H]1O (stereo partly drawn) [Example 36]	7.30 to 9.00
CNC(=O)[C@H]1O[C@@H](n2cnc3c(N)nc(C#CCN(CCOC)C(=O)c4ccccc4)nc32)C(O)[C@@H]1O (stereo partly drawn) [Example 14, N-Methyl 2-{3-[N-(2-methoxyethyl)benzamido]propyn-1-yl}adenosine-5′-uronamide]	> 9.00
COc1ccc(CN(CC#Cc2nc(N)c3ncn([C@@H]4O[C@H](C(=O)NC5CC5)[C@@H](O)C4O)c3n2)C(=O)C2CC2)cc1 (stereo partly drawn) [Example 18]	> 9.00
Nc1nc(C#CCN(C(=O)Cc2ccccc2)C2CC2)nc2c1ncn2[C@@H]1O[C@H](C(=O)NC2CC2)[C@@H](O)C1O (stereo partly drawn) [Example 16]	7.30 to 9.00
CNC(=O)[C@H]1O[C@@H](n2cnc3c(N)nc(C#CCN(C)C(=O)c4ccc(C(F)(F)F)nc4)nc32)C(O)[C@@H]1O (stereo partly drawn) [Example 1, N-Methyl 2-(3-{N-methyl-1-[6-(trifluoromethyl)pyridin-3-yl]formamido}prop-1-yn-1-yl)adenosine-5′-uronamide]	> 9.00
CCNC(=O)[C@H]1O[C@@H](n2cnc3c(N)nc(C#CCN(C(=O)c4ccc(Cl)nc4)C4CC4)nc32)C(O)[C@@H]1O (stereo partly drawn) [Example 26]	> 9.00
CCNC(=O)[C@H]1O[C@@H](n2cnc3c(N)nc(C#CCN(C)C(=O)c4ccc(C(F)(F)F)nc4)nc32)C(O)[C@@H]1O (stereo partly drawn) [Example 28]	> 9.00
CNC(=O)[C@H]1O[C@@H](n2cnc3c(N)nc(C#CCN(C(=O)c4ccccc4)C4CCC4)nc32)C(O)[C@@H]1O (stereo partly drawn) [Example 8, N-Methyl 2-{3-[N-(cyclobutyl)benzamido]propyn-1-yl}adenosine-5′-uronamide]	> 9.00
CCNC(=O)[C@H]1O[C@@H](n2cnc3c(N)nc(C#CCN(C(=O)Cc4ccccc4)C4CC4)nc32)C(O)[C@@H]1O (stereo partly drawn) [Example 27]	7.30 to 9.00
CNC(=O)[C@H]1O[C@@H](n2cnc3c(N)nc(C#CCN(C(=O)c4ccc(Cl)nc4)C4CC4)nc32)C(O)[C@@H]1O (stereo partly drawn) [Example 22]	> 9.00
CNC(=O)[C@H]1O[C@@H](n2cnc3c(N)nc(C#CCN(C(=O)c4ccccc4)C4CC4)nc32)C(O)[C@@H]1O (stereo partly drawn) [Example 23]	< 7.30
CNC(=O)[C@H]1O[C@@H](n2cnc3c(N)nc(C#CCN(C)C(=O)c4ccc(F)cc4)nc32)C(O)[C@@H]1O (stereo partly drawn) [Example 15, N-Methyl 2-{3-[4-fluoro-N-methylbenzamido]propyn-1-yl}adenosine-5′-uronamide]	> 9.00
Nc1nc(C#CCN(C(=O)c2ccccc2)C2CCC2)nc2c1ncn2[C@@H]1O[C@H](C(=O)NC2CC2)[C@@H](O)C1O (stereo partly drawn) [Example 4, N-Cyclopropyl 2-{3-[N-(cyclobutyl)benzamido]propyn-1-yl}adenosine-5′-uronamide]	> 9.00
Nc1nc(C#CCN(CC2CC2)C(=O)c2ccccc2)nc2c1ncn2[C@@H]1O[C@H](C(=O)NC2CC2)[C@@H](O)C1O (stereo partly drawn) [Example 3, N-Cyclopropyl 2-{3-[N-(cyclopropylmethyl)benzamido]propyn-1-yl}adenosine-5′-uronamide]	> 9.00
CN(CC#Cc1nc(N)c2ncn([C@@H]3O[C@H](C(=O)NC4CC4)[C@@H](O)C3O)c2n1)C(=O)c1ccc(C(F)(F)F)nc1 (stereo partly drawn) [Example 2, N-Cyclopropyl 2-(3-{N-methyl-1-[6-(trifluoromethyl)pyridin-3-yl]formamido}prop-1-yn-1-yl)adenosine-5′-uronamide]	> 9.00
CNC(=O)[C@H]1O[C@@H](n2cnc3c(N)nc(C#CCN(C(=O)c4ccc(F)cc4)C4CCC4)nc32)C(O)[C@@H]1O (stereo partly drawn) [Example 19]	> 9.00
CNC(=O)[C@H]1O[C@@H](n2cnc3c(N)nc(C#CCN(C)C(=O)c4ccncc4)nc32)C(O)[C@@H]1O (stereo partly drawn) [Example 10, N-Methyl 2-{3-[N-methylisonicotinamido]propyn-1-yl}adenosine-5′-uronamide]	7.30 to 9.00
CNC(=O)[C@H]1O[C@@H](n2cnc3c(N)nc(C#CCN(C(=O)c4cccc(F)c4)C4CCC4)nc32)C(O)[C@@H]1O (stereo partly drawn) [Example 20]	> 9.00
CNC(=O)[C@H]1O[C@@H](n2cnc3c(N)nc(C#CCN(C)C(=O)c4ccc(C#N)cc4)nc32)C(O)[C@@H]1O (stereo partly drawn) [Example 33]	> 9.00

The remaining lines, values ahead:

pKi	SMILES
> 9.00	CNC(=O)[C@H]1O[C@@H](n2cnc3c(N)nc(C#CCN(C(=O)c4ccc(OC)c(F)c4)C4CCC4)nc32)C(O)[C@@H]1O (stereo partly drawn) [Example 21]
> 9.00	CNC(=O)[C@H]1O[C@@H](n2cnc3c(N)nc(C#CCN(C(=O)c4ccccc4)C4CCCC4)nc32)C(O)[C@@H]1O (stereo partly drawn) [Example 31]
> 9.00	CNC(=O)[C@H]1O[C@@H](n2cnc3c(N)nc(C#CCN(C)C(=O)c4ccccc4)nc32)C(O)[C@@H]1O (stereo partly drawn) [Example 13, N-Methyl 2-{3-[N-methylbenzamido]propyn-1-yl}adenosine-5′-uronamide]
> 9.00	CNC(=O)[C@H]1O[C@@H](n2cnc3c(N)nc(C#CCN(C(=O)c4ccc(Cl)cc4)C4CCC4)nc32)C(O)[C@@H]1O (stereo partly drawn) [Example 30]
7.30 to 9.00	Nc1nc(C#CCNC(=O)c2ccccc2)nc2c1ncn2[C@@H]1O[C@H](C(=O)NC2CC2)[C@@H](O)C1O (stereo partly drawn) [Example 5, N-Cyclopropyl 2-{3-[benzamido]propyn-1-yl}adenosine-5′-uronamide]
7.30 to 9.00	CNC(=O)[C@H]1O[C@@H](n2cnc3c(N)nc(C#CCN(Cc4ccc(OC)cc4)C(=O)C4CC4)nc32)C(O)[C@@H]1O (stereo partly drawn) [Example 17]
> 9.00	Nc1nc(C#CCN(C(=O)c2ccccc2)C2CC2)nc2c1ncn2[C@@H]1O[C@H](C(=O)NC2CC2)[C@@H](O)C1O (stereo partly drawn) [Example 25]
> 9.00	CNC(=O)[C@H]1O[C@@H](n2cnc3c(N)nc(C#CCN(CCOC)C(=O)c4ccc(F)nc4)nc32)C(O)[C@@H]1O (stereo partly drawn) [Example 11, N-Methyl 2-{3-[6-fluoro-N-(2-methoxyethyl)nicotinamido]propyn-1-yl}adenosine-5′-uronamide]
7.30 to 9.00	CNC(=O)[C@H]1O[C@@H](n2cnc3c(N)nc(C#CCN(Cc4cccs4)C(=O)c4ccccc4)nc32)C(O)[C@@H]1O (stereo partly drawn) [Example 34]
7.30 to 9.00	CN(CC#Cc1nc(N)c2ncn([C@@H]3O[C@H](C(=O)NC4CC4)[C@@H](O)C3O)c2n1)C(=O)c1ccc(F)nc1 (stereo partly drawn) [Example 7, N-Cyclopropyl 2-{3-[N-methyl-1-(6-fluoropyridin-3-yl)formamido]prop-1-yn-1-yl}adenosine-5′-uronamide]
> 9.00	CNC(=O)[C@H]1O[C@@H](n2cnc3c(N)nc(C#CCN(C)C(=O)c4ccc(OC)c(F)c4)nc32)C(O)[C@@H]1O (stereo partly drawn) [Example 29]
> 9.00	Nc1nc(C#CCN(C(=O)c2ccc(Cl)nc2)C2CC2)nc2c1ncn2[C@@H]1O[C@H](C(=O)NC2CC2)[C@@H](O)C1O (stereo partly drawn) [Example 24]
> 9.00	CCNC(=O)[C@H]1O[C@@H](n2cnc3c(N)nc(C#CCN(C)C(=O)c4ccc(F)nc4)nc32)C(O)[C@@H]1O (stereo partly drawn) [Example 35]
> 9.00	CNC(=O)[C@H]1O[C@@H](n2cnc3c(N)nc(C#CCN(CCOC)C(=O)c4cccs4)nc32)C(O)[C@@H]1O (stereo partly drawn) [Example 12, N-Methyl 2-{3-[N-(2-methoxyethyl)thiophene-2-carboxamido]propyn-1-yl}adenosine-5′-uronamide]

— patent US9067963B2, “N-alkyl 2-(disubstituted)alkynyladenosine-5-uronamides as A2A agonists” (Lewis and Clark Pharmaceuticals, Inc., priority 2012, dated 2015)
